# Laboratory results as given in patent US12409174B2, “Combination of zibotentan and dapagliflozin for the treatment of endothelin related diseases” (priority 2020, dated 2025).
# Tests used:
# [1] = Zibotentan and dapagliflozin blood concentrations, Experiment 2; settings: male, Wistar, rat, Exp 2; for concentration at 4 h: 4 hr post first dose
# Procedure: (§1) In the second experiment (Experiment 2), the effect of zibotentan and dapagliflozin (alone or in combination) on Hct concentration and Hb was determined. Seventy-two animals were randomized on BW and Hct concentration, 2 to 3 days prior to administration of study drugs into the following groups; 1) Vehicle, 2) Zibotentan (30 mg/kg), 3) Zibotentan (100 mg/kg), 4) Dapagliflozin (3 mg/kg), 5) Zibotentan (30 mg/kg)+Dapagliflozin (3 mg/kg) and 6) Zibotentan (100 mg/kg)+Dapagliflozin (3 mg/kg). For practical reasons, the study was conducted in two consecutive slots with 36 animals (6/group) in each slot. Compounds were administered p.o. QD for seven days. Blood samples for bioanalysis were collected at 4 and 24 hr after the first dose and 24 hr after the final dose for Hct concentration and Hb analysis on day three and seven as described for exp.1. Twenty-four hour urine was collected between the third and fourth dose. 24 hr food and water intake was measured between day 2-3 and between day 6-7. With two animals per cage, food intake and water intake per animal in a cage was assessed by dividing the food intake and water intake of a cage by two.
# The blood and urine concentrations of zibotentan and dapagliflozin were determined by a bioanalytical method using liquid chromatography with mass spectrometric detection (LC-MS/MS).
# Whole blood samples for bioanalysis of dapagliflozin and zibotentan followed the same procedure. A volume of 20 μL whole blood was precipitated with 150 μL acetonitrile containing internal standard and quickly vortexed, followed by a 20 min centrifugation at 3220 g and 4° C. The supernatant was transferred to a fresh deep well plate and diluted 1:1 with water prior to LC-MS analysis. Matrix matched calibration samples and blanks were treated in the same way as study samples. Zibotentan samples were further diluted twice and three times at a 1:10 ratio with 33% acetonitrile, to ensure all diluted samples were detectible within the calibration range.
# Sample concentrations were determined against matrix-spiked calibration standards over a range of 0.010 μM-10.0 μM for dapagliflozin and 0.75 μM-376 μM for zibotentan, applying weighted linear regression (1/X^2) using Waters TargetLynx software version XS V4.2 SCN986.
# Samples were analyzed by using reversed-phase high-pressure liquid chromatography with rapid gradient elution. Compounds were detected with Waters Xevo TQ-S triple quadrupole mass spectrometer (Waters Corporation, Milford, MA, USA). The chromatographic separation was performed by an ACQUITY BEH C18 1.8 μM, 2.1×50 mm column at a temperature of 40° C. Mobile phase A was 2% acetonitrile and 0.2% formic acid in water (A), and mobile phase B was 0.2% formic acid in acetonitrile (B). Separation was achieved using the following elution gradient: 0 min to 1.5 min, 4% B ramping up to 95% B; 1.5 min to 2.3 min, kept at 95% B; 2.3 min to 2.4 min, 95% B to 4% B and kept at 4% B until 2.7 min. The flow rate was 0.7 mL/min.
# Samples were analyzed by reversed-phase high-pressure liquid chromatography with rapid gradient elution. Compounds were detected with Waters Xevo TQ-S triple quadrupole mass spectrometer (Waters Corporation, Milford, MA, USA). Mobile phase A was 1M ammonium acetate/acetonitrile/water (0.1/2/97.5, v/v/v), and mobile phase B was 1M ammonium acetate/acetonitrile (0.1/99.5, v/v). Separation was performed by an ACQUITY BEH C18 1.8 μM, 2.1×50 mm column from Waters using the following gradient: 0 min to 2.5 min, 4% B ramping to 60% B; 2.5 min to 2.9 min, 60% B to 95% B; 2.9 min to 3.4 min kept at 95% B, and from 3.4 to 3.5 min mobile phase B was returned to 4% B and kept at 4% B until 4 min. The flow rate was 0.6 mL/min and column temperature was 40° C.
# [2] = Effect of zibotentan, dapagliflozin and the combination on body weight, Experiment 2; settings: Exp 2; for Prevention of BW gain compared to vehicle: administration period 7 days, FIG. 7
# Procedure: as §1
# (§2) The data for each feature measured was checked for a normal distribution and where appropriate a log transformation was applied to data with a non-normal distribution using R. Since the data were grouped by one factor Zibotentin doses or combined therapy, a one-way ANOVA was used to analyse traits measured at a single time point (GraphPad version 8 or R statistics package emmeans) and a linear mixed effects model (nlme package) in R was used to analyse multiple measures data for body weight. The differences between groups were tested using either a Dunnett test (emmeans package in R or GraphPad v8) when comparing treated groups to the vehicle group or a Tukey comparison (emmeans package in R or Graphpad v8.) for specific pairwise comparisons of treated groups. All model assumptions were checked using the model diagnostic plots in R statistics. Results are expressed as the Mean±standard error of the Mean (SEM) for pharmacodynamic parameters and Mean±standard deviation (SD) for compound concentration in blood and urine. Significance was set at p<0.05.
# To assess the effect of the combined therapy on weight loss, body weight was measured every day and was compared using a linear mixed effects model.
# [3] = test system: male Wistar rats fed a 4% salt diet; assay: Effect on plasma Na, K, glucose, urea and creatinine concentration, Experiment 2; settings: Exp 2
# Procedure: as §1
# Plasma and Urine Albumin, Creatinine, Glucose, Urea, Potassium and Sodium levels were analyzed using an ABX Pentra 400 instrument (Horiba Medical, Irvine, California, USA) according to the manufacturers protocol.
# as §2
# [4] = test system: male Wistar rats fed a 4% salt diet; assay: Effect of zibotentan and dapagliflozin on Hb, Experiment 2; format: in vivo; settings: Exp 2; for Basal Hb: baseline
# Procedure: as §1
# (§3) For Hct and Hb analysis, 100 μl of blood from rat's tail vein was collected and measured using CG8 cartridges analysed with an iSTAT instrument (Abbott Point of Care Inc, Abbot Park, IL, USA).
# as §2
# [5] = test system: male Wistar rats fed a 4% salt diet; assay: Effect of zibotentan, dapagliflozin and the combination on Hct, Experiment 2; format: in vivo; set-up: key to Hct levels, difference in means (estimate): difference in log-transformed Hct means, treated minus vehicle; Hct levels, Difference / Difference in Hct means: unit not given here; settings: Exp 2; for Difference in Hct means: all time points; for Hct levels, difference in means (estimate): log scale
# Procedure: as §1, §3, §2
# The Hct data were analysed using a linear mixed effects model to estimate the marginal means and standard deviations within the vehicle and treated groups estimated at day 3, day 7 and overall for the entire study for post hoc comparisons. Treatment groups were compared to the vehicle to determine whether there were effects on Hct compared to the vehicle treated control group (Dunnett test), and the zibotentan treated groups were compared to zibotentan plus dapagliflozin groups (using a Tukey test) to determine if the combined therapy mitigated the effect of zibotentan on Hct.
smiles,measurement,setting,value
"CCOc1ccc(Cc2cc([C@@H]3O[C@H](CO)[C@@H](O)[C@H](O)[C@H]3O)ccc2Cl)cc1 [Dapa, (1S)-1,5-anhydro-1-{4-chloro-3-[(4-ethoxyphenyl)methyl]phenyl}-D-glucitol]",concentration at 24 h,"[1]; whole blood, oral, 3 mg/kg, Dapagliflozin blood concentration, Dapa 3 mg/kg p.o. QD 7 days, 24 hr post last dose",0.048 µM
same,concentration at 4 h,"[1]; whole blood, oral, 3 mg/kg, Dapagliflozin blood concentration, Dapa 3 mg/kg p.o. QD",1.94 µM
same,concentration at 24 h,"[1]; whole blood, oral, 3 mg/kg, Dapagliflozin blood concentration, Dapa 3 mg/kg p.o. QD, 24 hr post first dose",0.086 µM
same,"Changes in body weight over the entire study, Difference",[2]; Dapa 3 mg/kg vs Vehicle,−0.03
same,Prevention of BW gain compared to vehicle,[2],prevented this BW gain
same,"Plasma Na, K, glucose, urea concentrations compared to vehicle",[3],unaltered
same,Plasma Creatinine,[3]; Dapa 3 mg/kg p.o. QD 7 days,14.62 µM
same,Plasma Glucose,[3]; Dapa 3 mg/kg p.o. QD 7 days,8.98 mmol/L
same,Plasma K,[3]; Dapa 3 mg/kg p.o. QD 7 days,3.68 mmol/L
same,Plasma Na,[3]; Dapa 3 mg/kg p.o. QD 7 days,137.6 mmol/L
same,Plasma Urea,[3]; Dapa 3 mg/kg p.o. QD 7 days,4.34 mmol/L
same,Day 3 Hb,[4]; Dapa 3 mg/kg p.o. QD,164.4 g/L
same,Day 7 Hb,[4]; Dapa 3 mg/kg p.o. QD,159.1 g/L
same,Basal Hb,[4]; group Dapa 3 mg/kg,157.9 g/L
same,Difference in Hct means,[5]; Dapa 3 mg/kg vs Vehicle,0.01
same,"Hct levels, difference in means (estimate)","[5]; day 3, Dapa 3.0 mg/kg vs Vehicle",0.03
same,"Hct levels, Difference","[5]; day 7, Dapa 3.0 mg/kg vs Vehicle",0.01
"COc1nc(C)cnc1NS(=O)(=O)c1cccnc1-c1ccc(-c2nnco2)cc1 [Zibo, N-(3-methoxy-5-methylpyrazin-2-yl)-2-[4-(1,3,4-oxadiazol-2-yl)phenyl]pyridine-3-sulfonamide]",concentration at 24 h,"[1]; in vivo, 30 mg/kg, Zibotentan blood concentration, Zibo 30 mg/kg p.o. QD 7 days, 24 hr post last dose",22.9 µM
same,concentration at 4 h,"[1]; in vivo, 30 mg/kg, Zibotentan blood concentration, Zibo 30 mg/kg p.o. QD",61.1 µM
same,concentration at 24 h,"[1]; in vivo, 30 mg/kg, Zibotentan blood concentration, Zibo 30 mg/kg p.o. QD, 24 hr post first dose",7.8 µM
same,concentration at 24 h,"[1]; in vivo, 100 mg/kg, Zibotentan blood concentration, Zibo 100 mg/kg p.o. QD 7 days, 24 hr post last dose",136 µM
same,concentration at 4 h,"[1]; in vivo, 100 mg/kg, Zibotentan blood concentration, Zibo 100 mg/kg p.o. QD",161 µM
same,concentration at 24 h,"[1]; in vivo, 100 mg/kg, Zibotentan blood concentration, Zibo 100 mg/kg p.o. QD, 24 hr post first dose",63.9 µM
same,"Changes in body weight over the entire study, Difference",[2]; Zibo 30 mg/kg vs Vehicle,0.01
same,"Changes in body weight over the entire study, Difference",[2]; Zibo 100 mg/kg vs Vehicle,0.01
same,Prevention of BW gain compared to vehicle,[2],did not
same,"Plasma Na, K, glucose, urea concentrations compared to vehicle",[3],unaltered
same,Plasma Creatinine,[3]; Zibo 30 mg/kg p.o. QD 7 days,17.58 µM
same,Plasma Glucose,[3]; Zibo 30 mg/kg p.o. QD 7 days,8.96 mmol/L
same,Plasma K,[3]; Zibo 30 mg/kg p.o. QD 7 days,4.17 mmol/L
same,Plasma Na,[3]; Zibo 30 mg/kg p.o. QD 7 days,139.1 mmol/L
same,Plasma Urea,[3]; Zibo 30 mg/kg p.o. QD 7 days,4.47 mmol/L
same,Plasma creatinine compared to vehicle,"[3]; Zibo 100 mg/kg monotreatment or in combination with Dapa 3 mg/kg, p<0.05",significantly increase
same,Plasma Creatinine,[3]; Zibo 100 mg/kg p.o. QD 7 days,18.08 µM
same,Plasma Glucose,[3]; Zibo 100 mg/kg p.o. QD 7 days,8.73 mmol/L
same,Plasma K,[3]; Zibo 100 mg/kg p.o. QD 7 days,4.13 mmol/L
same,Plasma Na,[3]; Zibo 100 mg/kg p.o. QD 7 days,138.4 mmol/L
same,Plasma Urea,[3]; Zibo 100 mg/kg p.o. QD 7 days,4.25 mmol/L
same,Day 3 Hb,[4]; Zibo 30 mg/kg p.o. QD,144.4 g/L
same,Day 7 Hb,[4]; Zibo 30 mg/kg p.o. QD,148.6 g/L
same,Day 3 Hb,[4]; Zibo 100 mg/kg p.o. QD,147.5 g/L
same,Day 7 Hb,[4]; Zibo 100 mg/kg p.o. QD,144.8 g/L
same,Basal Hb,[4]; group Zibo 30 mg/kg,160.2 g/L
same,Basal Hb,[4]; group Zibo 100 mg/kg,158.5 g/L
same,Difference in Hct means,[5]; Zibo 30 mg/kg vs Vehicle,−0.05
same,Difference in Hct means,[5]; Zibo 100 mg/kg vs Vehicle,−0.06
same,"Hct levels, difference in means (estimate)","[5]; day 3, Zibo 30 mg/kg vs Vehicle",−0.10
same,"Hct levels, difference in means (estimate)","[5]; day 3, Zibo 100 mg/kg vs Vehicle",−0.08
same,Hct compared to vehicle,"[5]; day 3, zibotentan 30 and 100 mg/kg with or without dapagliflozin 3 mg/kg",decreased
same,"Hct levels, Difference","[5]; day 7, Zibo 30 mg/kg vs Vehicle",−0.06
same,"Hct levels, Difference","[5]; day 7, Zibo 100 mg/kg vs Vehicle",−0.08
same,Hct compared to vehicle,"[5]; day 7, zibotentan 30 and 100 mg/kg alone",decreased
same,Effect on Hct concentration,"[5]; zibotentan 100 mg/kg alone, 7 days, one way ANOVA, Tukey",−4.00±0.87
same,Hct concentration,"[5]; zibotentan 30 or 100 mg/kg, 7 days administration",significantly decreased
